Experimental data reported in patent US20240016874A1, “COMPOSITIONS AND METHODS FOR PREVENTING AND TREATING CORONAVIRUSES” (priority 2020, published 2024).
Where two headings read alike, the source gives them in different places.

Tests used:
[1] = tested on: SARS-CoV-2 MLV-PP infecting Expi-293F-ACE2 cells
[2] = tested on: SARS-CoV-2 MLV-PP infecting Expi-293F-ACE2 cells; experiment: microbe, parasite or virus in culture; settings: Severe acute respiratory syndrome coronavirus 2, read-out: IC50 of thymoquinone, SARS-CoV-2-PP infection

## C[C@@H]1CCO[C@H]2Cn3cc(C(=O)NCc4ccc(F)cc4F)c(=O)c(O)c3C(=O)N12 [dolutegravir, reference compound]
[1]
  inhibition of SARS-CoV-2 MLV-PP: potent inhibitor

## CC1=CC(=O)C(C(C)C)=CC1=O [thymoquinone]
[1]
  block of the viral infection: block the viral infection
  cell toxicity at high concentrations: can cause cell death
  concentration that blocks SARS-CoV-2-MLV-PP infection without any cell toxicity: 1 to 10 µM
  increased effectiveness on adding black seed oil to thymoquinone: about 16.0%
[1]; read-out: IC50 of thymoquinone, SARS-CoV-2-PP infection
  IC50: 3.6 µM
[2]
  IC50: 4.3 µM

## COc1cnc(-n2cnc(C)n2)c2[nH]cc(C(=O)C(=O)N3CCN(C(=O)c4ccccc4)CC3)c12 [temsavir, reference compound]
[1]
  inhibition of SARS-CoV-2 MLV-PP infecting Expi-293F-ACE2 cells: does not inhibit
